From patent publication US7531194B2, “Plant extracts for the treatment of rheumatoid arthritis” (Development Center for Biotechnology, priority 2006, dated 2009)

Key:
[1] = Body weight of CIA rats fed PA crude extracts (Embodiment 2); format: in vivo, Lewis rats; conditions: gavage from about Day 20 until Day 45, PA-H 375, PA-L 75, indomethacin 2.5 mg/kg/day, FIG. 3
Experimental: The test animals, Lewis rats, 8 weeks old and about 155-165 g in weight, were all purchased from National Laboratory Animal Center. They were raised in an animal house with a 12-hour light/12-hour dark cycle, a room temperature of 23±1° C., moderate moisture, and good air conditioning, wherein water and feed were provided ad libitum. In addition, during the operation, all the test animals conformed to the criteria of the International Committee on Laboratory Animals' standard regulation. The animal test scheme is shown as FIG. 2. Bovine collagen Type II (Bovine C II) was dissolved in 0.1 M acetic acid solution, stirred to dissolve thoroughly, and formulated into solutions with concentrations of 1.5 and 3 mg/ml, which were stored in 4° C. for later use. For the first immune injection, 100 μl of C II solution was emulsified with an equal amount of CFA, and injected subcutaneously (200 μl/rat) in the root portions of tails of the rats after the emulsification was complete. […] After about 15 days, the second immunization was done. 100 μl of C II solution was emulsified with an equal amount of IFA, and injected subcutaneously (200 μl/rat) in the root portions of tails of the rats after the emulsification was complete. Approximately from Day 20, the symptoms of arthritis were observed (CIA rats), and PA and indomethacin were fed until Day 45. [table] 1. […]

Rheumatoid factor (RF) = experiment: Serum RF analysis of CIA rats fed PA crude extracts (Embodiment 2); format: in vivo, Lewis rats
Experimental: The animal test scheme is shown as FIG. 2. Bovine collagen Type II (Bovine C II) was dissolved in 0.1 M acetic acid solution, stirred to dissolve thoroughly, and formulated into solutions with concentrations of 1.5 and 3 mg/ml, which were stored in 4° C. for later use. For the first immune injection, 100 μl of C II solution was emulsified with an equal amount of CFA, and injected subcutaneously (200 μl/rat) in the root portions of tails of the rats after the emulsification was complete. […] After about 15 days, the second immunization was done. 100 μl of C II solution was emulsified with an equal amount of IFA, and injected subcutaneously (200 μl/rat) in the root portions of tails of the rats after the emulsification was complete. Approximately from Day 20, the symptoms of arthritis were observed (CIA rats), and PA and indomethacin were fed until Day 45. [table] 1. Collagen was formulated in a coating buffer to a concentration of 40 μg/ml, 0.1 ml of which was added into a 96-well micro plate respectively, and was kept in 4° C. overnight. 2. After washing with Tris buffer three times, 0.2 ml of blocking buffer containing 1% BSA was added into each well. The reaction lasted for 2 hours at room temperature, and then was washed by Tris buffer three times again. 3. […] Finally, absorption (O.D) value was read out at the wavelength of 450 nm.

COc1ccc2c(c1)c(CC(=O)O)c(C)n2C(=O)c1ccc(Cl)cc1 [indomethacin, Indomethacin]
effect on the body weight of CIA rats (weight reduction) [1]: weight reduction is efficiently avoided
reduction of serum RF value (Rheumatoid factor (RF); Day 35 compared with Day 20, FIG. 6): 47%
reduction of serum RF value (Rheumatoid factor (RF); Day 45 compared with Day 20, FIG. 6): 51%
